US9315503B2, “Kinase inhibitors” (CHIESI FARMACEUTICI S.p.A., priority 2011, dated 2016)
Structures can show the parent of a compound that is named as a salt.

Target: T1, p38alpha (Homo sapiens, UniProt Q16539)
T1 construct: purchased Invitrogen PV3304
Assay: P38Alpha enzyme inhibition assay (Alphascreen kinase activity assay)
Type: biochemical
Conditions: 100 pM p38alpha, 250 μM ATP, 2 hours pre-incubation at 25° C., read-out: p38α inhibition (IC50 values)
Description: P38Alpha Enzyme Inhibition Assay.
The inhibitory activity of compounds was determined using an Alphascreen® (Perkin Elmer) based kinase activity assay. Kinase reactions consisted of 25 mM HEPES pH 7.5, 10 mM MgCl2, 100 μM Na3VO4, 2 mM DTT, 0.05 mg/ml Tween 20, 100 pM p38alpha (Invitrogen, PV3304), 1% DMSO and 0.3 μg/ml ATF-2 fusion protein (New England Biolabs, 9224). Compounds were incubated under these conditions for 2 hours, at 25° C., prior to the initiation of the kinase activity by the addition of the 250 μM ATP. Reaction volumes were 20 uL. After 1 hr at 25° C. reactions were stopped by the adding 10 uL of 25 mM HEPES pH 7.5 containing 62.5 mM EDTA, 0.05% Triton X-100, 10% BSA and 0.83 ng/uL anti-phospho-ATF2 antibody (Abeam, ab28812). Detection was performed by measuring luminescence following the addition of Alphascreen Donor beads (Perkin Elmer 6765300) and Protein A Alphascreen Acceptor beads (Perkin Elmer 6760137), both at a final concentration of 20 ug/ml. IC50 values were determined from concentration-response curves.

T1 sequence (Q16539 whole entry): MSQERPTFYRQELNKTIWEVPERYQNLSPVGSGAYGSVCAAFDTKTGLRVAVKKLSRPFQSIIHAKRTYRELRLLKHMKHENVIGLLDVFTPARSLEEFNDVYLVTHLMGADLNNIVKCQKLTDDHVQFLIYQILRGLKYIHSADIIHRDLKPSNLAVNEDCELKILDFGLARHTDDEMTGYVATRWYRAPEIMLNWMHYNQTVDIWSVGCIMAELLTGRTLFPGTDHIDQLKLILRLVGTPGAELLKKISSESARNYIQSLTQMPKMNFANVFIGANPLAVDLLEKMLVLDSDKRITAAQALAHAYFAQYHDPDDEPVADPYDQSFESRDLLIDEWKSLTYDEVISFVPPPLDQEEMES

IC50 [nM]	SMILES
< 10	C[C@H]1CCCCN1c1nnc2ccc(O[C@@H]3CC[C@H](NC(=O)Nc4cc(C(C)(C)C)nn4-c4cccc(CCN(C)C)c4)c4ccccc43)cn12 [Example 134, 1-{5-tert-Butyl-2-[3-(2-dimethylamino-ethyl)-phenyl]-2H-pyrazol-3-yl}-3-{(1S,4R)-4-[3-((S)-2-methyl-piperidin-1-yl)-[1,2,4]triazolo[4,3-a]pyridin-6-yloxy]-1,2,3,4-tetrahydro-naphthalen-1-yl}-urea formate salt]
< 10	C[C@H]1CCCCN1c1nnc2ccc(O[C@@H]3CC[C@H](NC(=O)Nc4cc(C(C)(C)C)nn4-c4ccc(CN5CCCC5)cc4)c4ccccc43)cn12 [Example 181, 1-[5-tert-Butyl-2-(4-pyrrolidin-1-ylmethyl-phenyl)-2H-pyrazol-3-yl]-3-{(1S,4R)-4-[3-((S)-2-methyl-piperidin-1-yl)-[1,2,4]triazolo[4,3-a]pyridin-6-yloxy]-1,2,3,4-tetrahydro-naphthalen-1-yl}-urea formate salt]
< 10	C[C@H]1CCCCN1c1nnc2ccc(O[C@@H]3CC[C@H](NC(=O)Nc4cc(C(C)(C)C)nn4-c4ccc(CN5CCN(C)CC5)cc4)c4ccccc43)cn12 [Example 178, 1-{5-tert-Butyl-2-[4-(4-methyl-piperazin-1-ylmethyl)-phenyl]-2H-pyrazol-3-yl}-3-{(1S,4R)-4-[3-((S)-2-methyl-piperidin-1-yl)-[1,2,4]triazolo[4,3-a]pyridin-6-yloxy]-1,2,3,4-tetrahydro-naphthalen-1-yl}-urea partial formate salt]
< 10	Cc1ccc(-n2nc(C(C)(C)C)cc2NC(=O)N[C@H]2CC[C@@H](Oc3ccc4nnc(CN5CCN(C)C(CO)C5)n4c3)c3ccccc32)cc1 (stereo partly drawn) [Example 56, 1-(5-tert-Butyl-2-p-tolyl-2H-pyrazol-3-yl)-3-{(1S,4R)-4-[3-(3-hydroxymethyl-4-methyl-piperazin-1-ylmethyl)-[1,2,4]triazolo[4,3-a]pyridin-6-yloxy]-1,2,3,4-tetrahydro-naphthalen-1-yl}-urea]
< 10	C[C@H]1CCCCN1c1nnc2ccc(O[C@@H]3CC[C@H](NC(=O)Nc4cc(C(C)(C)C)nn4-c4cccc(CN(C)C)c4)c4ccccc43)cn12 [Example 170, 1-[5-tert-Butyl-2-(3-dimethylaminomethyl-phenyl)-2H-pyrazol-3-yl]-3-{(1S,4R)-4-[3-((S)-2-methyl-piperidin-1-yl)-[1,2,4]triazolo[4,3-a]pyridin-6-yloxy]-1,2,3,4-tetrahydro-naphthalen-1-yl}-urea formate salt]
< 10	Cc1ccc(-n2nc(C(C)(C)C)cc2NC(=O)N[C@H]2CC[C@@H](Oc3ccc4nnc([C@@H]5CCCN5)n4c3)c3ccccc32)cc1 [Example 6, 1-(5-tert-Butyl-2-p-tolyl-2H-pyrazol-3-yl)-3-[(1S,4R)-4-((S)-3-pyrrolidin-2-yl-[1,2,4]triazolo[4,3-a]pyridin-6-yloxy)-1,2,3,4-tetrahydro-naphthalen-1-yl]-urea]
< 10	C[C@H]1CCCCN1c1nnc2ccc(O[C@@H]3CC[C@H](NC(=O)Nc4cc(C(C)(C)C)nn4-c4cccc(CCN5CCCC5)c4)c4ccccc43)cn12 [Example 132, 1-{5-tert-Butyl-2-[3-(2-pyrrolidin-1-yl-ethyl)-phenyl]-2H-pyrazol-3-yl}-3-{(1S,4R)-4-[3-((S)-2-methyl-piperidin-1-yl)-[1,2,4]triazolo[4,3-a]pyridin-6-yloxy]-1,2,3,4-tetrahydro-naphthalen-1-yl}-urea formate salt]
< 10	C[C@H]1CCCCN1c1nnc2ccc(O[C@@H]3CC[C@H](NC(=O)Nc4cc(C(C)(C)C)nn4-c4cccc(CCN5CCCCC5)c4)c4ccccc43)cn12 [Example 135, 1-{5-tert-Butyl-2-[3-(2-piperidin-1-yl-ethyl)-phenyl]-2H-pyrazol-3-yl}-3-{(1S,4R)-4-[3-((S)-2-methyl-piperidin-1-yl)-[1,2,4]triazolo[4,3-a]pyridin-6-yloxy]-1,2,3,4-tetrahydro-naphthalen-1-yl}-urea formate salt]
< 10	COC1CCN(Cc2cccc(-n3nc(C(C)(C)C)cc3NC(=O)N[C@H]3CC[C@@H](Oc4ccc5nnc(N6CCCC[C@@H]6C)n5c4)c4ccccc43)c2)CC1 [Example 167, 1-{5-tert-Butyl-2-[3-(4-methoxy-piperidin-1-ylmethyl)-phenyl]-2H-pyrazol-3-yl}-3-{(1S,4R)-4-[3-((S)-2-methyl-piperidin-1-yl)-[1,2,4]triazolo[4,3-a]pyridin-6-yloxy]-1,2,3,4-tetrahydro-naphthalen-1-yl}-urea formate salt]
< 10	CCN(C)CCOc1cccc(-n2nc(C(C)(C)C)cc2NC(=O)N[C@H]2CC[C@@H](Oc3ccc4nnc(N5CCCC[C@@H]5C)n4c3)c3ccccc32)c1 [Example 163, 1-(5-tert-Butyl-2-{3-[2-(ethyl-methyl-amino)-ethoxy]-phenyl}-2H-pyrazol-3-yl)-3-{(1S,4R)-4-[3-((S)-2-methyl-piperidin-1-yl)-[1,2,4]triazolo[4,3-a]pyridin-6-yloxy]-1,2,3,4-tetrahydro-naphthalen-1-yl}-urea formate salt]
< 10	C[C@H]1CCCCN1c1nnc2ccc(O[C@@H]3CC[C@H](NC(=O)Nc4cc(C(C)(C)C)nn4-c4ccc(CN5CCCCC5)cc4)c4ccccc43)cn12 [Example 182, 1-[5-tert-Butyl-2-(4-piperidin-1-ylmethyl-phenyl)-2H-pyrazol-3-yl]-3-{(1S,4R)-4-[3-((S)-2-methyl-piperidin-1-yl)-[1,2,4]triazolo[4,3-a]pyridin-6-yloxy]-1,2,3,4-tetrahydro-naphthalen-1-yl}-urea formate salt]
< 10	C[C@H]1CCCCN1c1nnc2ccc(O[C@@H]3CC[C@H](NC(=O)Nc4cc(C(C)(C)C)nn4-c4cccc(OCCN5CCC(F)CC5)c4)c4ccccc43)cn12 [Example 159, 1-{5-tert-Butyl-2-{3-[2-(4-fluoropiperidin-1-yl)-ethoxy]-phenyl}-2H-pyrazol-3-yl}-3-{(1S,4R)-4-[3-((S)-2-methyl-piperidin-1-yl)-[1,2,4]triazolo[4,3-a]pyridin-6-yloxy]-1,2,3,4-tetrahydro-naphthalen-1-yl}-urea formate salt]
< 10	C[C@H]1CCCCN1c1nnc2ccc(O[C@@H]3CC[C@H](NC(=O)Nc4cc(C(C)(C)C)nn4-c4ccc(CN5CCC(F)CC5)cc4)c4ccccc43)cn12 [Example 183, 1-{5-tert-Butyl-2-[4-(4-fluoro-piperidin-1-ylmethyl)-phenyl]-2H-pyrazol-3-yl}-3-{(1S,4R)-4-[3-((S)-2-methyl-piperidin-1-yl)-[1,2,4]triazolo[4,3-a]pyridin-6-yloxy]-1,2,3,4-tetrahydro-naphthalen-1-yl}-urea formate salt]
< 10	C[C@H]1CCCCN1c1nnc2ccc(O[C@@H]3CC[C@H](NC(=O)Nc4cc(C(C)(C)C)nn4-c4cccc(CCN5CCCOCC5)c4)c4ccccc43)cn12 [Example 137, 1-{5-tert-Butyl-2-[3-(2-[1,4]oxazepan-4-yl-ethyl)-phenyl]-2H-pyrazol-3-yl}-3-{(1S,4R)-4-[3-((S)-2-methyl-piperidin-1-yl)-[1,2,4]triazolo[4,3-a]pyridin-6-yloxy]-1,2,3,4-tetrahydro-naphthalen-1-yl}-urea formate salt]
< 10	CN(C)CCOc1cccc(-n2nc(C(C)(C)C)cc2NC(=O)N[C@H]2CC[C@@H](Oc3ccc4nnc(N5CCCCC56CC6)n4c3)c3ccccc32)c1 [Example 148, 1-{(1S,4R)-4-[3-(4-Aza-spiro[2.5]oct-4-yl)-[1,2,4]triazolo[4,3-a]pyridin-6-yloxy]-1,2,3,4-tetrahydro-naphthalen-1-yl}-3-{5-tert-butyl-2-[3-(2-dimethylamino-ethoxy)-phenyl]-2H-pyrazol-3-yl}-urea formate salt]
< 10	C[C@H]1CCCCN1c1nnc2ccc(O[C@@H]3CC[C@H](NC(=O)Nc4cc(C(C)(C)C)nn4-c4cccc(CN5CCC(F)CC5)c4)c4ccccc43)cn12 [Example 169, 1-{5-tert-Butyl-2-[3-(4-fluoro-piperidin-1-ylmethyl)-phenyl]-2H-pyrazol-3-yl}-3-{(1S,4R)-4-[3-((S)-2-methyl-piperidin-1-yl)-[1,2,4]triazolo[4,3-a]pyridin-6-yloxy]-1,2,3,4-tetrahydro-naphthalen-1-yl}-urea formate salt]
< 10	C[C@H]1CCCCN1c1nnc2ccc(O[C@@H]3CC[C@H](NC(=O)Nc4cc(C(C)(C)C)nn4-c4ccc(CN5CCOCC5)cc4)c4ccccc43)cn12 [Example 176, 1-[5-tert-Butyl-2-(4-morpholin-4-ylmethyl-phenyl)-2H-pyrazol-3-yl]-3-{(1S,4R)-4-[3-((S)-2-methyl-piperidin-1-yl)-[1,2,4]triazolo[4,3-a]pyridin-6-yloxy]-1,2,3,4-tetrahydro-naphthalen-1-yl}-urea]
< 10	COCCN(C)Cc1cccc(-n2nc(C(C)(C)C)cc2NC(=O)N[C@H]2CC[C@@H](Oc3ccc4nnc(N5CCCC[C@@H]5C)n4c3)c3ccccc32)c1 [Example 168, 1-[5-tert-Butyl-2-(3-{[(2-methoxy-ethyl)-methyl-amino]-methyl}-phenyl)-2H-pyrazol-3-yl]-3-{(1S,4R)-4-[3-((S)-2-methyl-piperidin-1-yl)-[1,2,4]triazolo[4,3-a]pyridin-6-yloxy]-1,2,3,4-tetrahydro-naphthalen-1-yl}-urea formate salt]
